Results from PMC10778980, “Profiling Novel Quinuclidine-Based Derivatives as Potential Anticholinesterase Drugs: Enzyme Inhibition and Effects on Cell Viability” (International Journal of Molecular Sciences, 2023).
“Also recorded” adds a separate entry of the source. Read-outs that look alike come from different tables or passages of the source.

What was measured:
[1] = target: T1, human AChE (Homo sapiens, UniProt P22303); experiment: Reversible inhibition of AChE (Ellman's procedure, Hunter–Downs evaluation); format: biochemical; details: for Ki: Ki ± standard error, 0.1, 0.2, 0.35 and 0.5 mM substrate ATCh, 25 °C, pH 7.4; for Ki (AChE)/Ki (BChE): selectivity ratio
T1 construct: The sources of human AChE and BChE were native erythrocytes and plasma, respectively; from tissue; host or cells: human erythrocytes from venous blood of a healthy volunteer
T1 sequence (P22303 32-617 isoform P22303-2 limits assumed): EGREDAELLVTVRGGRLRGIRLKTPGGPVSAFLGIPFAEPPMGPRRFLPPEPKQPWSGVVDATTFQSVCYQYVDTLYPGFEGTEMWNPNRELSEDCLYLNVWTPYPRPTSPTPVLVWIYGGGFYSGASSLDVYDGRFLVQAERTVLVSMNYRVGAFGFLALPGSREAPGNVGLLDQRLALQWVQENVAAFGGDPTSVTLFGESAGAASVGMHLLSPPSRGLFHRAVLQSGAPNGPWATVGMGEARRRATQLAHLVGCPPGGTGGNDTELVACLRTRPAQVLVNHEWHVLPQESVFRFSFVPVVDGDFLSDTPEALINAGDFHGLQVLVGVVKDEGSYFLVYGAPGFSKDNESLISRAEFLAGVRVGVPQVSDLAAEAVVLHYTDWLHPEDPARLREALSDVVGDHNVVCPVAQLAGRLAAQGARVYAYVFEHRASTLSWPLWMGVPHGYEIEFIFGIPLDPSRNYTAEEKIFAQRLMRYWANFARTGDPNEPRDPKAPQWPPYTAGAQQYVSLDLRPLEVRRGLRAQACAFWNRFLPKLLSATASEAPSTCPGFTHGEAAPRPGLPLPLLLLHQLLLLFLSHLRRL
Description: (§1) Cholinesterase substrate acetylthiocholine (ATCh) and the thiol reagent 5,5′-dithiobis(2-nitrobenzoic acid) (DTNB) for the enzyme activity measurement were purchased from Sigma-Aldrich (St. Louis, MO, USA). The sources of human AChE and BChE were native erythrocytes and plasma, respectively, obtained from the blood of a healthy volunteer and in accordance with the approval of the Ethics Committee of the Institute for Medical Research and Occupational Health (approval number: 100-21/23-6). Erythrocytes and plasma were isolated from the whole blood and prepared according to a previously published procedure. Namely, venous blood was collected into a heparinized tube and centrifuged (at 4 °C, 20 min on 2500 rpm, Eppendorf centrifuge 5702R) to separate plasma from the erythrocytes. Plasma was removed and used as a source of BChE, while erythrocytes were washed twice with the 0.1 M sodium phosphate buffer, pH 7.4, in a volume corresponding to the initial volume of the whole blood. Both plasma and erythrocytes were frozen at −20 °C until use. Quinuclidine compounds were dissolved in dH2O as 10 or 100 mM; exceptionally, 3-hydroxyimino compounds with longer chains (C12−C16) were dissolved in DMSO as 100 mM solutions. Stock solutions were kept at 4 °C until use. Further dilutions were made in distilled water.
(§2) The reversible inhibition experiments followed a previously published procedure. Namely, the enzyme activity was measured in the presence of a wide range of quinuclidine compound concentrations and in the substrate range from 0.1 to 0.5 mM to confirm the type of compound binding. The activity was assayed following the Ellman’s procedure, with the modification in the wavelength used for detection of the TNB anion in the case of AChE activity measurement due to the interference of the hemoglobin, and according to Worek et al.. The assay was performed in 96-well plates on an Infinite M200PRO plate reader (Tecan Austria GmbH, Salzburg, Austria) at 25 °C. Each concentration was tested in triplicate or quadruplicate on each plate. The inhibition mixture contained 0.1 M sodium phosphate buffer, pH 7.4, enzyme (AChE or BChE), quinuclidine compound (0.2–400 μM final), DTNB (0.3 mM final), and ATCh (from 0.1 to 0.5 mM final) to start the reaction. The increase in absorbance was read at 436 nm for AChE and at 412 nm for BChE. The measured activity in the presence of compounds was corrected for the non-enzymatic hydrolysis of substrate ATCh, if detected. The reversible enzyme–quinuclidine complex dissociation constants (the inhibition constants) Ki were evaluated from the effect of the substrate concentration on the degree of inhibition according to the Hunter–Downs equation as described previously, taking into account only quinuclidine concentrations where 20–80% inhibition of the activity was observed.

[2] = target: T2, human BChE (Homo sapiens, UniProt P06276); experiment: biochemical; details: Ki ± standard error; 0.1, 0.2, 0.35 and 0.5 mM substrate ATCh; 25 °C, pH 7.4; read-out: Ki BChE
T2 construct: Plasma was removed and used as a source of BChE; from tissue; host or cells: human blood plasma from a healthy volunteer
T2 sequence (P06276 29-602): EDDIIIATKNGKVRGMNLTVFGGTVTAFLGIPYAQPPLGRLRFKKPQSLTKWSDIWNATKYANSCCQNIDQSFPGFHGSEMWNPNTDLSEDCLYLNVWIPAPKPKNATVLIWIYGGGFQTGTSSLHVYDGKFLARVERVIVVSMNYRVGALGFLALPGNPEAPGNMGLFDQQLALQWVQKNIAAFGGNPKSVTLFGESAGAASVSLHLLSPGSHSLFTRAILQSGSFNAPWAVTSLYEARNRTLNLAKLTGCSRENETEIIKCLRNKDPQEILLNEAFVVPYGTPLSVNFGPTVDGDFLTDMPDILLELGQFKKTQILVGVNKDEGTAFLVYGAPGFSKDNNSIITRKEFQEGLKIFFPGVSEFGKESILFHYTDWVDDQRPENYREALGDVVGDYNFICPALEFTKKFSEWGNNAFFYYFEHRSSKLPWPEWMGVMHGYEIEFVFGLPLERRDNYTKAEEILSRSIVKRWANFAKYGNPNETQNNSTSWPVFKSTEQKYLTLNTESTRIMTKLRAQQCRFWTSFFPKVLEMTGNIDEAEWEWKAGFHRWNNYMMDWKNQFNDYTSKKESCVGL
Description: as §1, §2

[3] = tested on: SH-SY5Y cells; experiment: Cytotoxicity assay (MTS) on SH-SY5Y; format: cell-based; details: Homo sapiens
Method: (§3) SH-SY5Y cells were grown in DMEM F12 (Sigma-Aldrich, St. Louis, MO, USA) supplemented with 15% (v/v) fetal bovine serum (FBS), 2 mM glutamine, and 1% (v/v) non-essential amino acids (NEAA). HepG2 cells were grown in EMEM supplemented with 10% (v/v) FBS, 2 mM glutamine, and 1% (v/v) non-essential amino acids NEAA. All media and supplements were purchased from Sigma-Aldrich, Steinheim, Germany.
(§4) The procedure followed a previously described protocol.

[4] = tested on: HepG2 cells; experiment: Cytotoxicity assay (MTS) on HepG2; format: cell-based; details: Homo sapiens
Method: as §3, §4

[5] = tested on: SH-SY5Y cells; experiment: Cell membrane integrity (LDH release) on SH-SY5Y; format: cell-based, human; details: 4 h exposure, 12.5–200 µM
Method: (§5) Human neuroblastoma SH-SY5Y (ECACC 94030304) and human hepatocyte carcinoma HepG2 (ECACC 85011430) were used to evaluate in vitro dose- and time-dependent different cell effects. The SH-SY5Y cell line was selected as it represents a well-established model for studying neuronal cells, while HepG2 hepatocytes represent a liver model as a major organ participating in the metabolism of diverse compounds [31, 61, 62]. SH-SY5Y cells were grown in DMEM F12 (Sigma-Aldrich, St. Louis, MO, USA) supplemented with 15% (v/v) fetal bovine serum (FBS), 2 mM glutamine, and 1% (v/v) non-essential amino acids (NEAA). HepG2 cells were grown in EMEM supplemented with 10% (v/v) FBS, 2 mM glutamine, and 1% (v/v) non-essential amino acids NEAA. All media and supplements were purchased from Sigma-Aldrich, Steinheim, Germany.
(§6) Cell membrane integrity was determined after 4 h exposure to derivatives 3–5 and 10–12 by measuring the release of the intracellular lactate dehydrogenase (LDH), and the procedure followed a previously described protocol using The CytoTox-ONE™ Homogeneous Membrane Integrity Assay (Promega, Madison, WI, USA). Triton X-100 at a final concentration of 0.18% (v/v) (stock of 9% in water; Sigma-Aldrich, Steinheim, Germany) was used as a positive control to determine the maximal LDH release. Data were taken from at least two independent experiments (each treatment performed in duplicate) and plotted as a percentage of LDH release compared to the determined maximal LDH release, according to the manufacturer’s calculation protocol.

[6] = tested on: HepG2 cells; experiment: Cell membrane integrity (LDH release) on HepG2; format: cell-based, human; details: HepG2, 4 h exposure, 12.5–200 µM
Method: as §5, §6

[7] = tested on: SH-SY5Y cells; experiment: Mitochondrial membrane potential (TMRE assay) on SH-SY5Y; format: cell-based, human; details: 4 h exposure, LOAEL concentrations
Method: as §5
(§7) Mitochondrial membrane potential (ΔΨm) was determined using a cell-permeable, potential-sensitive cationic dye, tetramethylrhodamine ethyl ester perchlorate (TMRE, Cell Signaling Technology Europe, Leiden, The Netherlands). Cells were exposed for 4 h to derivatives 3–5 and 10–12. The procedure followed a previously described protocol. A concentration of 50 µM carbonyl cyanide 3-chlorophenylhydrazone (CCCP, Cell Signaling Technology Europe, Leiden, The Netherlands) was used as a positive control. Data were evaluated from at least three independent experiments (performed in duplicate) and presented as a normalized signal to the untreated control, according to the manufacturer’s calculation protocol.

[8] = tested on: HepG2 cells; experiment: Mitochondrial membrane potential (TMRE assay) on HepG2; format: cell-based, human; details: HepG2, 4 h exposure, LOAEL concentrations
Method: as §5, §7

[9] = tested on: caspase 8; experiment: Caspase 8 activity in SH-SY5Y (multiplex activity assay kit); format: cell-based, human; details: 4 h treatment, LOAEL concentrations
Method: as §3
Caspases (cysteine-aspartic proteases) caspase 3, caspase 8, and caspase 9 were simultaneously analyzed in cells using specific substrate and fluorogenic indicators from the Caspase-3, Caspase-8, and Caspase-9 Multiplex Activity Assay Kit (Abcam, Cambridge, UK). […] The procedure followed a previously described protocol. […] Data were evaluated from at least three independent experiments (performed in duplicate or triplicate), according to the manufacturer’s assay kit calculation protocol, and presented as a normalized signal to the untreated control.

[10] = tested on: SH-SY5Y cells; details: controls, cited from earlier work
[11] = 4 h exposure, read-out: IC50 ± SE SH-SY5Y 4 h
[12] = 24 h exposure, read-out: IC50 ± SE SH-SY5Y 24 h
[13] = read-out: IC50 ± SE SH-SY5Y 1 h, 1 h exposure
[14] = HepG2, read-out: IC50 ± SE HepG2 1 h, 1 h exposure
[15] = HepG2, 4 h exposure, read-out: IC50 ± SE HepG2 4 h
[16] = HepG2, 24 h exposure, read-out: IC50 ± SE HepG2 24 h

| SMILES | Ki [1] [µM] | Ki (AChE)/Ki (BChE) [1] | Ki [2] [µM] | IC50 [3, 11] [µM] | IC50 [3, 12] [µM] | IC50 [3, 13] [µM] | IC50 [4, 14] [µM] | IC50 [4, 15] [µM] | IC50 [4, 16] [µM] | LDH release [5] | LDH release [6] | Mitochondrial membrane potential (ΔΨm) [7] | Mitochondrial membrane potential (ΔΨm) [8] | Caspase 8 activation [9] | IC50 [10, 12] [µM] | IC50 [10, 13] [µM] |
| --- | --- | --- | --- | --- | --- | --- | --- | --- | --- | --- | --- | --- | --- | --- | --- | --- |
| CCCCCCCCCCCCCCCC[N+]12CCC(CC1)/C(=N\O)C2 [Compound 12] | 19 ± 1.6 | 0.4 | 48.6 ± 3.8 | 78 ± 1 | 54 ± 1 | 89 ± 1 | 40 ± 1 | 20 ± 1 | 7 ± 1 | strongest effect; also recorded: significant LDH release | significant LDH release | decrease in the mitochondrial membrane potential | decrease in the mitochondrial membrane potential | significant activation | – | – |
| CN[C@@H]1C[C@H]2O[C@@](C)([C@@H]1OC)n1c3ccccc3c3c4c(c5c6ccccc6n2c5c31)C(=O)NC4 [SS, staurosporine] | – | – | – | – | – | – | – | – | – | – | – | – | – | – | 0.12 ± 0.01 | ≥ 4 |
| CCCCCCCCCCCCCC[N+]12CCC(CC1)/C(=N\O)C2 [Compound 11] | 7 ± 0.9 | 0.8 | 8.8 ± 1 | 83 ± 3 | 60 ± 1 | 125 ± 2 | 37 ± 1 | 18 ± 1 | 11 ± 1 | strongest effect; also recorded: significant LDH release | significant LDH release | decrease in the mitochondrial membrane potential | decrease in the mitochondrial membrane potential | significant activation | – | – |
| CCCCCCCCCCCC[N+]12CCC(CC1)C(O)C2 (stereo not drawn) [Compound 3] | 13.2 ± 0.6 | 1.5 | 9 ± 0.8 | 74 ± 1 | 56 ± 1 | 145 ± 1 | 135 ± 1 | 81 ± 1 | 66 ± 1 | significant LDH release | strongest effect; also recorded: significant LDH release | decrease in the mitochondrial membrane potential | decrease in the mitochondrial membrane potential | – | – | – |
| CCCCCCCCCCCCCC[N+]12CCC(CC1)C(O)C2 (stereo not drawn) [Compound 4] | 4.2 ± 0.5 | 0.5 | 7.9 ± 0.7 | 9 ± 1 | 7 ± 1 | 16 ± 1 | 35 ± 1 | 32 ± 1 | 43 ± 1 | significant LDH release | strongest effect; also recorded: significant LDH release | decrease in the mitochondrial membrane potential | decrease in the mitochondrial membrane potential | – | – | – |
| CCCCCCCCCCCCCCCC[N+]12CCC(CC1)C(O)C2 (stereo not drawn) [Compound 5] | 9 ± 1.3 | 0.3 | 26.1 ± 2.4 | 8 ± 1 | 7 ± 1 | 11 ± 1 | 46 ± 1 | 26 ± 1 | 28 ± 1 | significant LDH release | strongest effect; also recorded: significant LDH release | decrease in the mitochondrial membrane potential | strongest effect; also recorded: decrease in the mitochondrial membrane potential | – | – | – |
